Test results as given in paper PMC9133015 (Nature Communications, 2022).
“And” between values parts separate entries of the source, which are not always exact repeats. Equal entries are not always repeated.

Tests used:
DYRK2 = target: T1, DYRK2 (Homo sapiens, UniProt Q92630); experiment: DYRKs kinase activity assay (33P-ATP, DYRKtide substrate): DYRK2; assay type: biochemical
T1 construct: purchased Reaction Biology Corporation (assay service)
T1 sequence (Q92630 1-601): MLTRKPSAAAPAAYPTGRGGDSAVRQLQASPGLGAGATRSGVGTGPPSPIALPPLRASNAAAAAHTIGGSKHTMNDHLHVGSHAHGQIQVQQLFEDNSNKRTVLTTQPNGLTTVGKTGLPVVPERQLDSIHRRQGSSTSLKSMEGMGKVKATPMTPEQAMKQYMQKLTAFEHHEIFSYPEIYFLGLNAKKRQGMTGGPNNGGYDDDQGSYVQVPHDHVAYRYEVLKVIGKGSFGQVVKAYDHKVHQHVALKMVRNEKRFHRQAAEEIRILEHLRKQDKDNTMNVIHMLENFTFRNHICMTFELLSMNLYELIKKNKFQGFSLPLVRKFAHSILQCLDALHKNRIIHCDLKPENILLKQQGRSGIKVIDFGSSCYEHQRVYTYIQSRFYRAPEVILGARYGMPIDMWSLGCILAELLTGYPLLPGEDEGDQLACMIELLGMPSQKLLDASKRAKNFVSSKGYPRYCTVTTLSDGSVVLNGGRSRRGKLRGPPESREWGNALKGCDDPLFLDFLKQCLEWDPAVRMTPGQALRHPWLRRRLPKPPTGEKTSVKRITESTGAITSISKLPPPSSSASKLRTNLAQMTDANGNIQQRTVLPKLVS

DYRK1A = target: T2, DYRK1A (Homo sapiens, UniProt Q13627); experiment: DYRKs kinase activity assay (33P-ATP, DYRKtide substrate): DYRK1A; assay type: biochemical
T2 construct: purchased Reaction Biology Corporation (assay service)

22Rv1 cells = experiment: Real-time quantitative PCR (RRS1, GRWD1, CCNG2, YPEL3 mRNA); assay type: cell-based, human; conditions: replicates
DU145 cells = experiment: as above; assay type: cell-based, human
p-4E-BP1 (Thr37/46) = experiment: Western blotting analysis of indicated proteins in PCa cells; assay type: cell-based, human; conditions: 48 h treatment
Pharmacokinetic profiles = assay type: in vivo; conditions: SD rats

## CCN1CCN(C(=O)c2ccc(Nc3ncc(F)c(-c4ccc5nc(N(C)C)sc5c4)n3)nc2)CC1 [YK-2-69]
DYRK2; 0.00228624 µM, duplicates, read-out: % Inhibition DYRK2
  inhibition at 0.00228624 µM: 26.1%
DYRK2; 0.00685871 µM, duplicates, read-out: % Inhibition DYRK2
  inhibition at 0.00685871 µM: 53%
DYRK2; 0.0205761 µM, duplicates, read-out: % Inhibition DYRK2
  inhibition at 0.0205761 µM: 65.2%
DYRK2; 0.0617284 µM, duplicates, read-out: % Inhibition DYRK2
  inhibition at 0.0617284 µM: 82.1%
DYRK2; 0.185185 µM, duplicates, read-out: % Inhibition DYRK2
  inhibition at 0.185185 µM: 94.1%
DYRK2; 0.555556 µM, duplicates, read-out: % Inhibition DYRK2
  inhibition at 0.555556 µM: 96.8%
DYRK2; 5 µM, duplicates, read-out: % Inhibition DYRK2
  inhibition at 5 µM: 97.8%
DYRK2; read-out: DYRK2 IC50
  IC50: 9 nM
DYRK1A
  IC50: > 1000 nM
DYRK1A; 0.000508053 µM, duplicates
  % Inhibition DYRK1A: -3.57% and 0.43%
DYRK1A; 0.00152416 µM, duplicates
  % Inhibition DYRK1A: -1.37% and 1.70%
DYRK1A; 0.00457247 µM, duplicates
  % Inhibition DYRK1A: 3.49% and -1.24%
DYRK1A; 0.0137174 µM, duplicates
  % Inhibition DYRK1A: 0.24% and -4.62%
DYRK1A; 0.0411523 µM, duplicates
  % Inhibition DYRK1A: -1.12% and -1.40%
DYRK1A; 0.123457 µM, duplicates
  % Inhibition DYRK1A: 14.11%
  inhibition at 0.123457 µM: 10.3%
DYRK1A; 0.37037 µM, duplicates
  % Inhibition DYRK1A: 34.28%
  inhibition at 0.37037 µM: 26%
DYRK1A; 1.11111 µM, duplicates
  % Inhibition DYRK1A: 40.80%
  inhibition at 1.11111 µM: 45.5%
DYRK1A; 3.33333 µM, duplicates
  % Inhibition DYRK1A: 66.09%
  inhibition at 3.33333 µM: 64.9%
DYRK1A; 10 µM, duplicates
  % Inhibition DYRK1A: 69.07%
  inhibition at 10 µM: 68.2%
DYRK1A; vs DYRK2
  selectivity over DYRK1A: more than 100 fold
22Rv1 cells; 22Rv1, 1 μM
  Relative mRNA levels CCNG2: 2.36 and 2.34 and 2.68
  Relative mRNA levels GRWD1: 0.83 and 0.9 and 0.89
  Relative mRNA levels RRS1: 0.87 and 0.83 and 0.82
  Relative mRNA levels YPEL3: 1.18 and 1.26 and 1.19
22Rv1 cells; 22Rv1, 2 μM
  Relative mRNA levels CCNG2: 4.36 and 5.2 and 4.62
  Relative mRNA levels GRWD1: 0.79 and 0.78 and 0.7
  Relative mRNA levels RRS1: 0.73 and 0.77 and 0.71
  Relative mRNA levels YPEL3: 1.68 and 1.63 and 1.74
22Rv1 cells; 22Rv1, 4 μM
  Relative mRNA levels CCNG2: 8.94 and 9.9 and 8.92
  Relative mRNA levels GRWD1: 0.69 and 0.68 and 0.62
  Relative mRNA levels RRS1: 0.63 and 0.68
  Relative mRNA levels YPEL3: 2.48 and 2.53 and 2.64
DU145 cells; DU145, 2 μM
  Relative mRNA levels CCNG2: 1.61 and 1.59 and 1.77
  Relative mRNA levels GRWD1: 0.86 and 0.88 and 0.9
  Relative mRNA levels RRS1: 0.88 and 0.78 and 0.86
  Relative mRNA levels YPEL3: 1.25 and 1.23 and 1.29
DU145 cells; DU145, 4 μM
  Relative mRNA levels CCNG2: 1.7 and 1.66 and 1.89
  Relative mRNA levels GRWD1: 0.79 and 0.71
  Relative mRNA levels RRS1: 0.68 and 0.7 and 0.71
  Relative mRNA levels YPEL3: 2.68 and 2.63 and 2.74
DU145 cells; DU145, 8 μM
  Relative mRNA levels CCNG2: 1.91 and 1.83 and 2.04
  Relative mRNA levels GRWD1: 0.58 and 0.63 and 0.67
  Relative mRNA levels RRS1: 0.58 and 0.65
  Relative mRNA levels YPEL3: 3.48 and 3.53 and 3.64
p-4E-BP1 (Thr37/46)
  phosphorylation of 4E-BP1: inhibited the phosphorylation of 4E-BP1 in a dose-dependent manner
Pharmacokinetic profiles; IV 1 mg/kg, 0.033 h, 1 mg/kg
  Con. (individual rats NO.1-3): 1120 ng/mL and 712 ng/mL
Pharmacokinetic profiles; IV 1 mg/kg, 0.083 h, 1 mg/kg
  Con. (individual rats NO.1-3): 959 ng/mL and 574 ng/mL
Pharmacokinetic profiles; IV 1 mg/kg, 0.25 h, 1 mg/kg
  Con. (individual rats NO.1-3): 611 ng/mL and 402 ng/mL
Pharmacokinetic profiles; IV 1 mg/kg, 0.5 h, 1 mg/kg
  Con. (individual rats NO.1-3): 480 ng/mL and 383 ng/mL
Pharmacokinetic profiles; IV 1 mg/kg, 1 h, 1 mg/kg
  Con. (individual rats NO.1-3): 355 ng/mL and 310 ng/mL
Pharmacokinetic profiles; IV 1 mg/kg, 2 h, 1 mg/kg
  Con. (individual rats NO.1-3): 199 ng/mL and 175 ng/mL
Pharmacokinetic profiles; IV 1 mg/kg, 4 h, 1 mg/kg
  Con. (individual rats NO.1-3): 96.9 ng/mL and 91.7 ng/mL
Pharmacokinetic profiles; IV 1 mg/kg, 6 h, 1 mg/kg
  Con. (individual rats NO.1-3): 63.9 ng/mL and 64.4 ng/mL
Pharmacokinetic profiles; IV 1 mg/kg, 8 h, 1 mg/kg
  Con. (individual rats NO.1-3): 45.3 ng/mL and 36.2 ng/mL
Pharmacokinetic profiles; IV 1 mg/kg, 12 h, 1 mg/kg
  Con. (individual rats NO.1-3): 14.4 ng/mL
Pharmacokinetic profiles; PO 10 mg/kg, 0.083 h, 10 mg/kg
  Con. (individual rats NO.1-3): 9.74 ng/mL and 9.99 ng/mL
